Data published in PMC2121212 (The Journal of Experimental Medicine, 2006).
No end group written: not given here.

How the values were obtained:
[1] = system: antigen-specific T cell hybridomas stimulated by APCs that do or do not express DM; format: cell-based, murine; conditions: for DM enhancement (fold DM effect): overnight, CTLL/MTT read-out
[2] = system: antigen-specific T cells stimulated by APCs that do or do not express DM; assay: Presentation from native protein versus MalE; format: cell-based, murine; conditions: native protein vs MalE (Fig. S1)
I-A^d = target: T1, I-A^d (Mus musculus, UniProt P01921+P04228); format: binding, murine
T1 sequence (P04228 24-111 limits assumed): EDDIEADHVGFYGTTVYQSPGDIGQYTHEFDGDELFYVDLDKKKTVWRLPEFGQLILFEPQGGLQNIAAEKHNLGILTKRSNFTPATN
T1 sequence (P01921 28-122 limits assumed): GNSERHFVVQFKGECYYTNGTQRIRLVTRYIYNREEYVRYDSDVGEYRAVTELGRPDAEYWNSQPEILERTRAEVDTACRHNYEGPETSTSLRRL

[3] = system: additional HEL [11–25]–specific and LACK [156–173]–specific T cell hybridomas; assay: Presentation to additional independently derived T cell hybridomas; format: cell-based, murine; conditions: compared with original T cells
CD4 T cell response = conditions: in vivo response to variant when encoded in MalE (Fig. 4); ref [28]; cited from earlier work

HA [126–138]: derived from the influenza hemagglutinin molecule (HNTNGVTAACSHE) [reference compound]
Presentation of synthetic peptide pulsed on DM^+ vs DM^− APCs ([1]; APCs pulsed with peptide instead of protein (Fig. 1 G, H; Fig. 2 B)): equivalent
Effect of DM expression on presentation ([1]; epitope encoded within MalE, DM^+ vs DM^− APCs (Figs. 1 and 2, Table II)): modestly antagonized

HEL [11-25]: cryptic epitope derived from HEL, which has an unstable interaction with class II molecules (AMKRHGLDNYRGYSL; also: fluorescein (FITC) label, position not given here) [reference compound]
Fold more protein required on APCs expressing DM (antagonism) [1]: ~10 fold
Influence of protein context on DM-mediated presentation [2]: independent of the protein context from which the peptide epitope is derived

R14Q, N19A, G22S: triple substitution HEL [11–25] variant (AMKQHGLDAYRSYSL; also: fluorescein (FITC) label, position not given here)
Increase in kinetic stability (I-A^d): threefold
DM enhancement (fold DM effect) [1]: 29.7 ± 7.6 fold
DM effect detected by additional T cell hybridomas [3]: confirmed this effect on the efficiency of presentation pattern with two additional, independently derived HEL [11–25]–specific hybridomas

T128G: HA [126–138] P1 substitution (T128G) (HNGNGVTAACSHE)
Immunogenicity of variant encoded in MalE (CD4 T cell response): cryptic

T128M: high stability HA variant T128M (HNMNGVTAACSHE)
Immunogenicity of variant encoded in MalE (CD4 T cell response): immunogenic

T128Q: kinetic stability variant of HA [126–138] (HNQNGVTAACSHE)
DM enhancement (fold DM effect) [1]: 3.5 ± 0.7 fold
Immunogenicity of variant encoded in MalE (CD4 T cell response): immunogenic

T128V, S136T: kinetic stability variant of HA [126–138] (HNVNGVTAACTHE)
Immunogenicity of variant encoded in MalE (CD4 T cell response): cryptic

V131A: HA [126–138] P4 substitution (V131A) (HNTNGATAACSHE)
Immunogenicity of variant encoded in MalE (CD4 T cell response): cryptic
